Measurements as given in paper PMC6934184, “Selective DNA-PKcs inhibition extends the therapeutic index of localized radiotherapy and chemotherapy” (The Journal of Clinical Investigation, 2019).

Target: T1, CAMK2G (CaMKII gamma) (Homo sapiens, UniProt Q13555)
T1 construct: purchased Thermo Fisher Scientific (Life Technologies) SelectScreen
Experiment: SelectScreen LanthaScreen
Format: binding
Conditions: read-out: % displacement
Description: The in vitro kinase selectivity of NU5455 was determined using the SelectScreen Broad Assay Panel (Thermo Fisher Scientific) involving activity and binding assays (Supplemental Table 1). […] Class IA PI3Ks were measured using the p85α subunit.
Kinase [ATP] % Assay Kinase [ATP] % Assay Kinase [ATP] % Assay Kinase [ATP] % Assay
DNA-PK Km app 98.3 Z LATS2 n/a 4.7 L KIT D820E n/a 1.3 L GSK3B (GSK3 beta) Km app -2.5 Z
PIK3C3 (hVPS34) Km app 85.9 A PRKCZ (PKC zeta) Km app 4.7 Z GRK1 n/a 1.3 L BMPR2 n/a -2.5 L
PIK3C2B (PI3K-C2 beta) 10 28.9 A FGFR1 Km app 4.7 Z BRSK2 n/a 1.2 L CDC42 BPB (MRCKB) Km app -2.5 Z
SNF1LK2 Km app 26.6 Z MINK1 Km app 4.6 Z NUAK1 (ARK5) Km app 1.2 A AMPK (A2/B2/G2) n/a -2.6 L
HCK Km app 18.0 Z CSF1R (FMS) Km app 4.3 Z CDK9/cyclin K n/a 1.0 L PRKG1 Km app -2.7 Z
NEK2 Km app 17.8 Z CSNK1G3 (CK1 gamma 3) Km app 4.2 Z NUAK2 n/a 1.0 L KIT T670E n/a -2.8 L
ALK Km app 17.3 Z STK32C (YANK3) n/a 4.2 L CDK2/cyclin O n/a 0.9 L ERBB4 (HER4) Km app -2.8 Z
FGFR3 K650M n/a 16.5 L STK22D (TSSK1) Km app 4.2 Z CAMKK2 (CaMKK beta) n/a 0.9 L PLK4 n/a -2.8 L
SIK3 n/a 16.1 L TAOK3 (JIK) n/a 4.2 L FGFR3 Km app 0.9 Z GRK7 Km app -3.0 Z
LYN A Km app 15.2 Z RPS6KA4 (MSK2) Km app 4.2 Z ULK2 n/a 0.9 L MAPKAPK2 Km app -3.1 Z
BMPR1B (ALK6) n/a 14.5 L PTK2B (FAK2) Km app 4.2 Z KIT D816V n/a 0.9 L FGFR4 Km app -3.1 Z
INSRR (IRR) Km app 14.1 Z CLK2 Km app 4.1 Z CAMK1 (CaMK1) 10 0.8 A CASK n/a -3.1 L
PLK2 Km app 14.1 Z STK24 (MST3) Km app 4.1 Z PTK6 (Brk) Km app 0.7 Z GRK5 Km app -3.2 Z
PRKACA (PKA) Km app 14.0 Z CAMK1D (CaMKI delta) Km app 4.1 Z CAMK2B (CaMKII beta) Km app 0.7 Z EGFR (ErbB1) T790M Km app -3.3 Z
EIF2AK2 (PKR) n/a 13.3 L INSR Km app 4.1 Z ACVR1 (ALK2) n/a 0.7 L PAK4 Km app -3.3 Z
PRKX Km app 12.5 Z IRAK1 Km app 4.0 A ABL1 H396P n/a 0.6 L DAPK3 (ZIPK) Km app -3.4 Z
FGR Km app 12.1 Z SRC N1 Km app 3.9 Z MERTK (cMER) A708S n/a 0.6 L RET M918T n/a -3.5 L
CLK1 Km app 11.7 Z SRPK2 Km app 3.9 Z MAPKAPK5 (PRAK) Km app 0.6 Z PRKCQ (PKC theta) Km app -3.7 Z
MARK3 Km app 11.4 Z RPS6KA6 (RSK4) Km app 3.8 Z AKT1 (PKB alpha) Km app 0.5 Z CAMKK1 (CAMKKA) n/a -3.8 L
PDGFRB (PDGFR beta) Km app 11.0 Z GRK6 Km app 3.7 Z NTRK3 (TRKC) Km app 0.4 Z FLT3 D835Y Km app -3.9 Z
PRKCN (PKD3) Km app 10.7 Z PKN1 (PRK1) Km app 3.6 Z ZAP70 Km app 0.3 Z ROCK2 Km app -4.1 Z
STK16 (PKL12) n/a 10.5 L MAP3K8 (COT) 100 3.5 Z CSNK1A1 (CK1 alpha 1) Km app 0.3 Z CHUK (IKK alpha) Km app -4.2 A
FES (FPS) Km app 10.4 Z FLT4 (VEGFR3) Km app 3.5 Z MYLK (MLCK) n/a 0.2 L AXL Km app -4.2 Z
ABL1 Km app 10.4 Z GRK4 Km app 3.5 Z MKNK2 (MNK2) n/a 0.2 L PIM2 Km app -4.3 Z
MUSK Km app 10.3 Z FRK (PTK5) Km app 3.4 Z AMPK (A1/B1/G3) n/a 0.2 L PAK1 Km app -4.4 Z
MAPK1 (ERK2) Km app 10.1 Z FYN A n/a 3.3 L MAP3K2 (MEKK2) n/a 0.1 L BMPR1A (ALK3) n/a -4.4 L
BRAF 100 9.9 Z CDK1/cyclin A2 n/a 3.3 L CDK8/cyclin C n/a 0.1 L STK4 (MST1) Km app -4.4 Z
IGF1R Km app 9.7 Z KIT V559D T670I n/a 3.1 L MARK2 Km app 0.1 Z PRKCH (PKC eta) Km app -4.6 Z
MAPK14 (p38 alpha) Km app 9.7 Z SPHK2 10 3.1 A ICK n/a 0.0 L SGKL (SGK3) Km app -4.6 Z
LCK Km app 9.6 Z FGFR3 G697C n/a 3.1 L FGFR2 Km app 0.0 Z PI4KB (PI4K beta) Km app -4.7 A
MAPK11 (p38 beta) Km app 9.5 Z RIPK2 n/a 3.1 L AKT2 (PKB beta) Km app 0.0 Z PRKCE (PKC epsilon) Km app -4.9 Z
SRC Km app 9.5 Z PAK6 Km app 3.0 Z EPHB2 Km app -0.1 Z PHKG1 Km app -5.0 Z
CHEK1 (CHK1) Km app 9.3 Z LYN B Km app 3.0 Z TGFBR2 n/a -0.1 L PDGFRA D842V Km app -5.0 Z
CAMK2D (CaMKII delta) Km app 9.3 Z DAPK2 n/a 2.9 L TEK (Tie2) Km app -0.1 Z PRKG2 (PKG2) Km app -5.1 Z
PLK1 Km app 9.2 Z EPHA4 Km app 2.9 Z AURKA (Aurora A) Km app -0.1 Z TYRO3 (RSE) Km app -5.1 Z
RET Y791F Km app 9.2 Z PIK3CG (p110 gamma) Km app 2.9 A KIT D816H n/a -0.2 L TAOK2 (TAO1) Km app -5.1 Z
FLT3 Km app 9.1 Z HIPK1 (Myak) Km app 2.8 Z KIT N822K n/a -0.2 L EPHB4 Km app -5.3 Z
MAPK10 (JNK3) 100 9.0 Z ADRBK2 (GRK3) Km app 2.8 Z PRKACG (PRKAC gamma) n/a -0.2 L AURKC (Aurora C) Km app -5.4 Z
CSNK2A2 (CK2 alpha 2) Km app 8.7 Z STK17B (DRAK2) n/a 2.7 L TEK (TIE2) Y1108F n/a -0.3 L JAK1 Km app -5.7 Z […]

T1 sequence (Q13555 whole entry): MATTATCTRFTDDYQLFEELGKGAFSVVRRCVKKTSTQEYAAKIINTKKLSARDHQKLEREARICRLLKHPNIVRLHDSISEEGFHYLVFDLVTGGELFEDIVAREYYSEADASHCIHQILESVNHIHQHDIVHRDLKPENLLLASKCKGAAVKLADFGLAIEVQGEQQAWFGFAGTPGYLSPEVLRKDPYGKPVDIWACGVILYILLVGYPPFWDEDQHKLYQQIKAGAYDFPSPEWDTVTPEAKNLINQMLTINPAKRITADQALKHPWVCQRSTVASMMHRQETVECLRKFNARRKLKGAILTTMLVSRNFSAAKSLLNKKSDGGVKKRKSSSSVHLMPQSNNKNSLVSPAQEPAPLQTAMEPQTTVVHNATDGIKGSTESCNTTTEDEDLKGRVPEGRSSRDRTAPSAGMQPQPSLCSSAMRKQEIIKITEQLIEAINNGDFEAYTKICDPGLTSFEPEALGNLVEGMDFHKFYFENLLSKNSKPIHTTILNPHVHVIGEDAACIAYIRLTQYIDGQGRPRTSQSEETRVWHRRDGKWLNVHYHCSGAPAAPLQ

CN(C(=O)CN1CCOCC1)c1ccc2sc3c(-c4cccc5c(=O)cc(N6CC7CCC(C6)O7)oc45)cccc3c2c1 [NU5455]
inhibition at 1 µM: -0.8%
